This is an account of results in US9266830B2, “Pesticidal arylpyrrolidines” (Bayer Intellectual Property GmbH, priority 2007, dated 2016).

Structures are written as SMILES.

The first data set relates to Boophilus microplus. The data set is described as follows: Boophilus microplus test (injection). To be noted: application rate 20 μg/animal, adult engorged females, after 7 days. It counts as in vivo. As for the experimental part: (§1) Solvent: dimethyl sulfoxide
To produce a suitable preparation of active compound, 10 mg of active compound are dissolved in 0.5 ml solvent, and the concentrate is diluted with solvent to the desired concentration. Five adult engorged female ticks (Boophilus microplus) are injected with compound solution into the abdomen. Ticks are transferred into replica plates and incubated in a climate chamber for a period of time. Egg deposition of fertile eggs is monitored. After 7 days mortality in % is determined 100% means that all eggs are infertile; 0% means that all eggs are fertile.
On to `O=C(NCc1ccc(N2CCC(c3cc(C(F)(F)F)cc(C(F)(F)F)c3)(C(F)(F)F)C2)cc1Br)C1CC1` (centres unmarked) [1-313], for which the “activity (100% means that all eggs are infertile)” value worked out at 100%. On the same count and under the same terms, then `C=CCS(=O)(=O)CC(=O)NCc1ccc(N2CCC(c3cc(Cl)c(Cl)c(Cl)c3)(C(F)(F)F)C2)cc1C(F)(F)F` (centres unmarked) [1-734], with 100%. Regarding `O=C(CC(F)(F)F)NCc1ccc(N2CCC(c3cc(Cl)c(Cl)c(Cl)c3)(C(F)(F)F)C2)cc1Cl` (centres unmarked) [1-340], the “activity (100% means that all eggs are infertile)” value is listed as 100%. Regarding `O=C(CCCl)NCc1ccc(N2CCC(c3cc(C(F)(F)F)cc(C(F)(F)F)c3)(C(F)(F)F)C2)cc1C(F)(F)F` (centres unmarked) [1-297], the “activity (100% means that all eggs are infertile)” value came out at 100%. On the same count and under the same terms, then `C[S+]([O-])CC(=O)NCc1ccc(N2CCC(c3cc(C(F)(F)F)cc(C(F)(F)F)c3)(C(F)(F)F)C2)cc1C(F)(F)F` (centres unmarked) [1-967], with 100%; and `CC(C)(C)OC(=O)NCc1ccc(N2CCC(c3cc(C(F)(F)F)cc(C(F)(F)F)c3)(C(F)(F)F)C2)cc1C(F)(F)F` (centres unmarked) [1-300], with 100%. Still for that read-out and setting: then `O=C(NCc1ccc(N2CCC(c3cc(Cl)c(Cl)c(Cl)c3)(C(F)(F)F)C2)cc1Br)C1CC1` (centres unmarked) [1-346], with 100%. In the case of `FC(F)(F)C1(c2cc(Cl)cc(Cl)c2)CCN(c2ccc(CNC(=S)NC3CC3)c(Cl)c2)C1` (centres unmarked) [1-468], the “activity (100% means that all eggs are infertile)” value worked out at 100%. The same measure, in the same setting: then `CCNC(=O)N(C)Cc1ccc(N2CCC(c3cc(Cl)cc(Cl)c3)(C(F)(F)F)C2)cc1Cl` (centres unmarked) [1-113], with 100%; and `O=C(NCc1ccc(N2CCC(c3cc(Cl)cc(Cl)c3)(C(F)(F)F)C2)cc1C(F)(F)F)C1CC1` (centres unmarked) [1-146], with 100%. Still for that read-out and setting: then `CCC(=O)NC1CCc2cc(N3CCC(c4cc(Cl)cc(Cl)c4)(C(F)(F)F)C3)ccc21` (centres unmarked) [6-4], with 100%. On the same count and under the same terms, the value for `C=CC[S+]([O-])CC(=O)NCc1ccc(N2CCC(c3cc(Cl)c(Cl)c(Cl)c3)(C(F)(F)F)C2)cc1C(F)(F)F` (centres unmarked) [1-733] was 100%. Regarding `O=C(NCC(F)(F)F)c1sc(N2CCC(c3cc(C(F)(F)F)cc(C(F)(F)F)c3)(C(F)(F)F)C2)nc1C(F)(F)F` (centres unmarked) [4-34], the “activity (100% means that all eggs are infertile)” value was 100%. On the same count and under the same terms, then `C=CCSCC(=O)NCc1ccc(N2CCC(c3cc(Cl)cc(Cl)c3)(C(F)(F)F)C2)cc1C(F)(F)F` (centres unmarked) [1-503], with 100%. With `CCNC(=O)NCc1cnc(N2CCC(c3cc(Cl)c(Cl)c(Cl)c3)(C(F)(F)F)C2)cc1C(F)(F)F` (centres unmarked) [1-381], the “activity (100% means that all eggs are infertile)” value turned out to be 100%.

As to `NCc1ccc(N2CCC(c3cc(C(F)(F)F)cc(C(F)(F)F)c3)(C(F)(F)F)C2)cc1C(F)(F)F` (centres unmarked) [1-295], the “activity (100% means that all eggs are infertile)” value came to 100%. On to `C[S+]([O-])CC(=O)NCc1ccc(N2CCC(c3cc(Cl)cc(Cl)c3)(C(F)(F)F)C2)cc1C(F)(F)F` (centres unmarked) [1-494], for which the “activity (100% means that all eggs are infertile)” value stood at 100%. As to `CC(=O)NCc1ccc(N2CCC(c3cc(C(F)(F)F)cc(C(F)(F)F)c3)(C(F)(F)F)C2)cc1[N+](=O)[O-]` (centres unmarked) [1-317], the “activity (100% means that all eggs are infertile)” value came to 100%.

In the case of `CC(NC(=O)NCc1ccc(N2CCC(c3cc(Cl)cc(Cl)c3)(C(F)(F)F)C2)cc1Cl)c1nccs1` (centres unmarked) [1-446], the “activity (100% means that all eggs are infertile)” value came out at 100%.

For the compound `C[S+]([O-])CC(=O)NCc1ccc(N2CCC(c3cc(Cl)c(Cl)c(Cl)c3)(C(F)(F)F)C2)cc1C(F)(F)F` (centres unmarked) [1-729], the “activity (100% means that all eggs are infertile)” value was 100%. Still for that read-out and setting: the value for `CSCC(=O)NCc1ccc(N2CCC(c3cc(Cl)c(Cl)c(Cl)c3)(C(F)(F)F)C2)cc1C(F)(F)F` (centres unmarked) [1-728] was 100%; that for `CC(=O)OCC(=O)NCc1ccc(N2CCC(c3cc(Cl)cc(Cl)c3)(C(F)(F)F)C2)cc1C(F)(F)F` (centres unmarked) [1-188] was 100%.

As for `C=CCS(=O)(=O)CC(=O)NCc1ccc(N2CCC(c3cc(Cl)cc(Cl)c3)(C(F)(F)F)C2)cc1C(F)(F)F` (centres unmarked) [1-505], the “activity (100% means that all eggs are infertile)” value came out at 100%. The same measure, in the same setting: then `O=C(NCc1ccc(N2CCC(c3cc(C(F)(F)F)cc(C(F)(F)F)c3)(C(F)(F)F)C2)cc1[N+](=O)[O-])C1CC1` (centres unmarked) [1-319], with 100%; and `O=C(NCc1ccccn1)c1sc(N2CCC(c3cc(Cl)c(Cl)c(Cl)c3)(C(F)(F)F)C2)nc1C(F)(F)F` (centres unmarked) [4-22], with 100%. The same measure, in the same setting: the value for `O=C(NCC(F)(F)F)c1cnc(N2CCC(c3cc(C(F)(F)F)cc(C(F)(F)F)c3)(C(F)(F)F)C2)nc1C(F)(F)F` (centres unmarked) [2-34] was 100%; that for `O=C(CC(F)(F)F)NCc1cnc(N2CCC(c3cc(Cl)c(Cl)c(Cl)c3)(C(F)(F)F)C2)nc1C(F)(F)F` (centres unmarked) [3-144] was 100%.

Consider `O=C(NCc1ccc(N2CCC(c3cc(Cl)cc(Cl)c3)(C(F)(F)F)C2)cc1C(F)(F)F)NC1CC1` (centres unmarked) [1-224], for which the “activity (100% means that all eggs are infertile)” value worked out at 100%. Still for that read-out and setting: the value for `CN(Cc1ccc(N2CCC(c3cc(Cl)cc(Cl)c3)(C(F)(F)F)C2)cc1C(F)(F)F)C(=O)NC1CC1` (centres unmarked) [1-260] was 100%; that for `C=CCSCC(=O)NCc1ccc(N2CCC(c3cc(C(F)(F)F)cc(C(F)(F)F)c3)(C(F)(F)F)C2)cc1C(F)(F)F` (centres unmarked) [1-969] was 100%; that for `O=C(NCc1ccc(N2CCC(c3cc(Cl)cc(Cl)c3)(C(F)(F)F)C2)cc1C(F)(F)F)NC1CCC1` (centres unmarked) [1-227] was 100%.

In the case of `O=C(CC1CC1)NCc1ccc(N2CCC(c3cc(Cl)cc(Cl)c3)(C(F)(F)F)C2)cc1Cl` (centres unmarked) [1-12], the “activity (100% means that all eggs are infertile)” value is listed as 100%. On the same count and under the same terms, the value for `O=C(NCc1ccc(N2CCC(c3cc(Cl)cc(Cl)c3)(C(F)(F)F)C2)cc1Cl)C1CC1` (centres unmarked) [1-4] was 100%. The same measure, in the same setting: the value for `CCNC(=O)NCc1cnc(N2CCC(c3cc(Cl)c(Cl)c(Cl)c3)(C(F)(F)F)C2)nc1C(F)(F)F` (centres unmarked) [3-145] was 100%. Still for that read-out and setting: the value for `O=C(CC(F)(F)F)NCc1sc(N2CCC(c3cc(Cl)c(Cl)c(Cl)c3)(C(F)(F)F)C2)nc1C(F)(F)F` (centres unmarked) [5-144] was 100%; that for `CS(=O)(=O)CC(=O)NCc1ccc(N2CCC(c3cc(C(F)(F)F)cc(C(F)(F)F)c3)(C(F)(F)F)C2)cc1C(F)(F)F` (centres unmarked) [1-968] was 100%; that for `CC(C)C(=O)NCc1ccc(N2CCC(c3cc(Cl)c(Cl)c(Cl)c3)(C(F)(F)F)C2)cc1C(F)(F)F` (centres unmarked) [1-329] was 100%. Consider `O=C(CC(F)(F)F)NCc1cnc(N2CCC(c3cc(C(F)(F)F)cc(C(F)(F)F)c3)(C(F)(F)F)C2)cc1C(F)(F)F` (centres unmarked) [1-386], for which the “activity (100% means that all eggs are infertile)” value was 100%.

On to `CSCC(=O)NCc1ccc(N2CCC(c3cc(Cl)cc(Cl)c3)(C(F)(F)F)C2)cc1C(F)(F)F` (centres unmarked) [1-186], for which the “activity (100% means that all eggs are infertile)” value is recorded as 100%. Turning to `O=C(NCc1ccc(N2CCC(c3cc(Cl)cc(Cl)c3)(C(F)(F)F)C2)cc1C(F)(F)F)NCC1CC1` (centres unmarked) [1-232], the “activity (100% means that all eggs are infertile)” value is given as 100%.

Take `O=C(CC(F)(F)F)NCc1ccc(N2CCC(c3cc(Cl)cc(Cl)c3)(C(F)(F)F)C2)cc1Cl` (centres unmarked) [1-19]: the “activity (100% means that all eggs are infertile)” value was 100%.

For the compound `O=C(NCc1ccccn1)NCc1ccc(N2CCC(c3cc(Cl)cc(Cl)c3)(C(F)(F)F)C2)cc1C(F)(F)F` (centres unmarked) [1-254], the “activity (100% means that all eggs are infertile)” value came to 100%. Still for that read-out and setting: the value for `O=C(NCc1ccc(N2CCC(c3cc(Cl)cc(C(F)(F)F)c3)(C(F)(F)F)C2)cc1C(F)(F)F)C1CC1` (centres unmarked) [1-357] was 100%; that for `O=C(CC1CC1)NCc1ccc(N2CCC(c3cc(Cl)cc(Cl)c3)(C(F)(F)F)C2)cc1C(F)(F)F` (centres unmarked) [1-155] was 100%; that for `O=C(NCc1ccc(N2CCC(c3cc(Cl)cc(Cl)c3)(C(F)(F)F)C2)cc1Cl)C1CC1(F)F` (centres unmarked) [1-25] was 100%. On the same count and under the same terms, then `O=C(NCc1ccccn1)c1sc(N2CCC(c3cc(C(F)(F)F)cc(C(F)(F)F)c3)(C(F)(F)F)C2)nc1C(F)(F)F` (centres unmarked) [4-35], with 100%; and `O=C(NCc1cnc(N2CCC(c3cc(C(F)(F)F)cc(C(F)(F)F)c3)(C(F)(F)F)C2)nc1C(F)(F)F)C1CC1` (centres unmarked) [3-149], with 100%.

As to `O=C(CC(F)(F)F)NCc1ccc(N2CCC(c3cc(Cl)c(Cl)c(Cl)c3)(C(F)(F)F)C2)cc1C(F)(F)F` (centres unmarked) [1-327], the “activity (100% means that all eggs are infertile)” value is listed as 100%. Same read-out and setting: then `CC(C)C(=O)NCc1ccc(N2CCC(c3cc(Cl)cc(Cl)c3)(C(F)(F)F)C2)cc1C(F)(F)F` (centres unmarked) [1-145], with 100%; and `N#Cc1ccc(N2CCC(c3cc(Cl)c(Cl)c(Cl)c3)(C(F)(F)F)C2)cc1Cl` (centres unmarked) [7-13], with 100%.

The test system of the next data set is Amblyomma hebraeum. The data set is described as follows: Amblyomma hebraeum test (AMBYHE), nymph immersion. It counts as in vivo. The conditions noted are these: 0.8 ppm, comparison with WO2008/128711. As for the experimental part:
as §1
To produce a suitable preparation of active compound, 10 mg of active compound are dissolved in 0.5 ml solvent, and the concentrate is diluted with water to the desired concentration. Nymphs of the tick Amblyomma hebraeum are placed in perforated plastic beakers and immersed in aqueous compound solution for one minute. Ticks are transferred to a filter paper in a Petri dish and incubated in a climate chamber for 42 days.
After 42 days mortality in % is determined 100% means that all the ticks have been killed; 0% means that none of the ticks have been killed.
Take `CCC(=O)NCc1ccc(N2CCC(c3cc(Cl)cc(Cl)c3)(C(F)(F)F)C2)cc1Br` (centres unmarked) [3-5 according to WO2008/128711, reference compound]: the “Activity at 0.8 ppm” value is 10%.

Staying with this data set, now noted: 4 ppm, comparison with WO2008/128711.
Turning to `CCC(=O)NCc1ccc(N2CCC(c3cc(Cl)cc(Cl)c3)(C(F)(F)F)C2)cc1Br` (centres unmarked) [3-5 according to WO2008/128711, reference compound], the “Activity at 4 ppm” value came out at 70%.

Still in this data set, the particulars now being: application rate 100 ppm, nymphs, after 42 days.
As for `O=C(NCc1ccc(N2CCC(c3cc(C(F)(F)F)cc(C(F)(F)F)c3)(C(F)(F)F)C2)cc1Br)C1CC1` (centres unmarked) [1-313], the “activity (mortality in %)” value is 95%. `C=CCS(=O)(=O)CC(=O)NCc1ccc(N2CCC(c3cc(Cl)c(Cl)c(Cl)c3)(C(F)(F)F)C2)cc1C(F)(F)F` (centres unmarked) [1-734]: the “activity (mortality in %)” value is listed as 90%. Still for that read-out and setting: then `O=C(CC(F)(F)F)NCc1ccc(N2CCC(c3cc(Cl)c(Cl)c(Cl)c3)(C(F)(F)F)C2)cc1Cl` (centres unmarked) [1-340], with 80%; and `O=C(CCCl)NCc1ccc(N2CCC(c3cc(C(F)(F)F)cc(C(F)(F)F)c3)(C(F)(F)F)C2)cc1C(F)(F)F` (centres unmarked) [1-297], with 90%.
